Data set [1] can be described thus: H+/Na+ transport assay of bead-derived peptides (one-point).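 Note: relative to parent gramicidin A activity set to 1.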 The format is biochemical. Also on record: key: relative activity; mean of two control wells = 1.00. As to conditions: bead-derived peptide solution, EYPC/EYPG LUVs. In short, it runs like this: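 Values are normalized fluorescence, with Triton X-100 defining 100% and untreated LUVs 0%, and the two control wells averaging 1.00. Vesicles carried 1.0 mM pyranine and included egg yolk phosphatidylglycerol. Peptides were incubated with them 30 min at room temperature.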

Data set [2] deals with Streptococcus pyogenes SSI-9. The experiment in a line: Antibacterial activity assay of bead-derived peptides (three concentrations). The format is cell-based. Also on record: key: +++: inhibition by the 640-fold diluted peptide solution; ++: inhibition by the 160-fold diluted solution; +: inhibition by the 40-fold diluted solution; -: no inhibition. The note with it: S. pyogenes, bead-derived peptide solution, three concentrations. A digest of the protocol: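 Library peptide stock applied undiluted, 4-fold and 16-fold diluted in DMSO to S. pyogenes SSI-9 (2 × 10^5 CFU) in cation-adjusted Mueller Hinton broth with 5% laked horse blood. After 18 h at 37 °C, growth judged by visible cell precipitation.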

The subject of data set [3] is P388 mouse leukemia cells. The note with it: 92 h. A digest of the protocol:
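P388 cells at 1 × 10^4 cells/mL (final) were exposed to library peptides (stocks diluted 250-fold in RPMI1640/10% FBS) for 92 h at 37 °C, 5% CO2. Viable cells were counted by WST-1/1-methoxy PMS (4 h), absorbance 415 nm, and expressed as cell viability (%).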

Structures are written as SMILES. Where a SMILES comes first, the peptide text is derived from it. [ ]: non-standard residue; d: D form. The star is where a group is joined. NHCH2CH2OH = OCCN*; For = O=C*

Turning to `CC(C)C[C@@H](NC(=O)[C@H](C)NC(=O)CNC(=O)[C@@H](NC=O)C(C)C)C(=O)N[C@@H](C)C(=O)N[C@@H](C(=O)N[C@H](C(=O)N[C@@H](C(=O)N[C@@H](Cc1c[nH]c2ccccc12)C(=O)N[C@@H](C(=O)N[C@@H](Cc1c[nH]c2ccccc12)C(=O)N[C@H](CC(C)C)C(=O)N[C@@H](Cc1c[nH]c2ccccc12)C(=O)N[C@@H](C(=O)N[C@@H](Cc1c[nH]c2ccccc12)C(=O)NCCO)C(C)C)C(C)C)[C@H](C)O)C(C)C)C(C)C` [compound 4427] (For-VGA[dL]A[dV]V[dT]W[dV]W[dL]W[dV]W-NHCH2CH2OH), in data set [1], the “H+/Na+ transport activity normalized against the value of 1 (1.00)” value (shortened to “H+/Na+ transport activity normalized”) stood at 1.18. In data set [2], the antibacterial activity result is given as “-”. This compound had a cell viability/% in data set [3] of 100.0%.

In the case of `CC(C)C[C@@H](NC(=O)[C@H](Cc1c[nH]c2ccccc12)NC(=O)[C@H](NC(=O)[C@H](Cc1c[nH]c2ccccc12)NC(=O)[C@@H](CC(C)C)NC(=O)[C@H](Cc1c[nH]c2ccccc12)NC(=O)[C@@H](CC(C)C)NC(=O)[C@@H](NC(=O)[C@H](NC(=O)[C@H](C)NC(=O)[C@H](NC(=O)[C@H](C)NC(=O)CNC(=O)[C@@H](NC=O)C(C)C)[C@H](C)O)C(C)C)C(C)C)C(C)C)C(=O)N[C@@H](Cc1c[nH]c2ccccc12)C(=O)NCCO` [compound 4440] (For-VGA[dT]A[dV]V[dL]W[dL]W[dV]W[dL]W-NHCH2CH2OH), in data set [1], the “H+/Na+ transport activity normalized” value is on record as 1.15. Also, the antibacterial activity entry in data set [2] was “-”. In data set [3], this compound had a cell viability/% of 85.6%.

On to `CC(C)C[C@@H](NC(=O)[C@H](C)NC(=O)[C@H](NC(=O)[C@H](C)NC(=O)CNC(=O)[C@@H](NC=O)C(C)C)C(C)C)C(=O)N[C@H](C(=O)N[C@H](CC(C)C)C(=O)N[C@@H](Cc1c[nH]c2ccccc12)C(=O)N[C@@H](C(=O)N[C@@H](Cc1c[nH]c2ccccc12)C(=O)N[C@@H](C(=O)N[C@@H](Cc1c[nH]c2ccccc12)C(=O)N[C@@H](C(=O)N[C@@H](Cc1c[nH]c2ccccc12)C(=O)NCCO)C(C)C)C(C)C)C(C)C)C(C)C` [compound 4477] (For-VGA[dV]A[dL]V[dL]W[dV]W[dV]W[dV]W-NHCH2CH2OH), for which the “H+/Na+ transport activity normalized” value in data set [1] amounted to 1.38. For the same compound, the antibacterial activity result in data set [2] is given as “+”. Moreover, the cell viability/% in data set [3] was 6.3%.

Take `CC(C)C[C@@H](NC(=O)[C@H](C)NC(=O)CNC(=O)[C@@H](NC=O)C(C)C)C(=O)N[C@@H](C)C(=O)N[C@@H](C(=O)N[C@H](C(=O)N[C@@H](C(=O)N[C@@H](Cc1c[nH]c2ccccc12)C(=O)N[C@@H](C(=O)N[C@@H](Cc1c[nH]c2ccccc12)C(=O)N[C@@H](C(=O)N[C@@H](Cc1c[nH]c2ccccc12)C(=O)N[C@H](CC(C)C)C(=O)N[C@@H](Cc1c[nH]c2ccccc12)C(=O)NCCO)C(C)C)C(C)C)[C@H](C)O)C(C)C)C(C)C` [compound 4493] (For-VGA[dL]A[dV]V[dT]W[dV]W[dV]W[dL]W-NHCH2CH2OH): the “H+/Na+ transport activity normalized” value in data set [1] stood at 1.19. The antibacterial activity result in data set [2] is recorded as “-”. The same compound had a cell viability/% in data set [3] of 100.0%.

For the compound `CC(C)C[C@@H](NC(=O)[C@H](C)NC(=O)CNC(=O)[C@@H](NC=O)C(C)C)C(=O)N[C@@H](C)C(=O)N[C@@H](C(=O)N[C@H](C(=O)N[C@@H](C(=O)N[C@@H](Cc1c[nH]c2ccccc12)C(=O)N[C@H](CC(C)C)C(=O)N[C@@H](Cc1c[nH]c2ccccc12)C(=O)N[C@H](CC(C)C)C(=O)N[C@@H](Cc1c[nH]c2ccccc12)C(=O)N[C@H](CC(C)C)C(=O)N[C@@H](Cc1c[nH]c2ccccc12)C(=O)NCCO)C(C)C)C(C)C)C(C)C` [compound 4495] (For-VGA[dL]A[dV]V[dV]W[dL]W[dL]W[dL]W-NHCH2CH2OH), the “H+/Na+ transport activity normalized” value in data set [1] was 1.26. In addition, the antibacterial activity result in data set [2] is “++”. The compound further registered a cell viability/% in data set [3] of 3.5%.

Turning to `CC(C)C[C@@H](NC(=O)[C@H](C)NC(=O)CNC(=O)[C@@H](NC=O)C(C)C)C(=O)N[C@@H](C)C(=O)N[C@H](CC(C)C)C(=O)N[C@H](C(=O)N[C@H](CC(C)C)C(=O)N[C@@H](Cc1c[nH]c2ccccc12)C(=O)N[C@@H](C(=O)N[C@@H](Cc1c[nH]c2ccccc12)C(=O)N[C@@H](C(=O)N[C@@H](Cc1c[nH]c2ccccc12)C(=O)N[C@@H](C(=O)N[C@@H](Cc1c[nH]c2ccccc12)C(=O)NCCO)C(C)C)C(C)C)[C@H](C)O)C(C)C` [compound 4532] (For-VGA[dL]A[dL]V[dL]W[dT]W[dV]W[dV]W-NHCH2CH2OH), the “H+/Na+ transport activity normalized” value in data set [1] amounted to 1.11. In addition, in data set [2], the antibacterial activity result is reported as “-”. Moreover, in data set [3], the cell viability/% was determined as 100.0%.

For `CC(C)C[C@@H](NC(=O)[C@H](C)NC(=O)[C@H](NC(=O)[C@H](C)NC(=O)CNC(=O)[C@@H](NC=O)C(C)C)[C@H](C)O)C(=O)N[C@H](C(=O)N[C@H](CC(C)C)C(=O)N[C@@H](Cc1c[nH]c2ccccc12)C(=O)N[C@@H](C(=O)N[C@@H](Cc1c[nH]c2ccccc12)C(=O)N[C@H](CC(C)C)C(=O)N[C@@H](Cc1c[nH]c2ccccc12)C(=O)N[C@@H](C(=O)N[C@@H](Cc1c[nH]c2ccccc12)C(=O)NCCO)C(C)C)[C@H](C)O)C(C)C` [compound 4545] (For-VGA[dT]A[dL]V[dL]W[dT]W[dL]W[dV]W-NHCH2CH2OH), the “H+/Na+ transport activity normalized” value in data set [1] was 1.18. Further, the antibacterial activity result in data set [2] is “-”. In data set [3], this compound showed a cell viability/% of 100.0%.

In the case of `CC(C)C[C@@H](NC(=O)[C@H](C)NC(=O)[C@H](NC(=O)[C@H](C)NC(=O)CNC(=O)[C@@H](NC=O)C(C)C)[C@H](C)O)C(=O)N[C@H](C(=O)N[C@@H](C(=O)N[C@@H](Cc1c[nH]c2ccccc12)C(=O)N[C@@H](C(=O)N[C@@H](Cc1c[nH]c2ccccc12)C(=O)N[C@H](CC(C)C)C(=O)N[C@@H](Cc1c[nH]c2ccccc12)C(=O)N[C@H](CC(C)C)C(=O)N[C@@H](Cc1c[nH]c2ccccc12)C(=O)NCCO)C(C)C)C(C)C)C(C)C` [compound 4652] (For-VGA[dT]A[dL]V[dV]W[dV]W[dL]W[dL]W-NHCH2CH2OH), the “H+/Na+ transport activity normalized” value in data set [1] stood at 1.03. The antibacterial activity result in data set [2] is “-”. The cell viability/% in data set [3] is listed as 100.0%.

On to `CC(C)C[C@@H](NC(=O)[C@H](C)NC(=O)CNC(=O)[C@@H](NC=O)C(C)C)C(=O)N[C@@H](C)C(=O)N[C@H](CC(C)C)C(=O)N[C@H](C(=O)N[C@@H](C(=O)N[C@@H](Cc1c[nH]c2ccccc12)C(=O)N[C@H](CC(C)C)C(=O)N[C@@H](Cc1c[nH]c2ccccc12)C(=O)N[C@H](CC(C)C)C(=O)N[C@@H](Cc1c[nH]c2ccccc12)C(=O)N[C@@H](C(=O)N[C@@H](Cc1c[nH]c2ccccc12)C(=O)NCCO)C(C)C)[C@H](C)O)C(C)C` [compound 4690] (For-VGA[dL]A[dL]V[dT]W[dL]W[dL]W[dV]W-NHCH2CH2OH), for which, in data set [1], the “H+/Na+ transport activity normalized” value was 1.01. Also, in data set [2], the antibacterial activity result was “+”. The same compound gave a cell viability/% in data set [3] of 100.0%.

The record behind these values is PMC7531004, “Discovery of gramicidin A analogues with altered activities by multidimensional screening of a one-bead-one-compound library” (Nature Communications, 2020).
